The target in the experiment is human Factor XIa (Homo sapiens (Human), UniProt P03951). Briefly: Factor XIa Assay. The settings on record: read-out: FXIa Ki. The format is biochemical. The method, then:
The effectiveness of a compound of the present invention as an inhibitor of Coagulation Factor XIa can be determined using a relevant purified serine protease, and an appropriate synthetic substrate. The rate of hydrolysis of the chromogenic or fluorogenic substrate by the relevant serine protease was measured both in the absence and presence of compounds of the present invention. Assays were conducted at room temperature or at 37° C. […] A decrease in the rate of fluorescence change in the presence of inhibitor is indicative of enzyme inhibition. Such methods are known to one skilled in the art. The results of this assay are expressed as the inhibitory constant, Ki.
Factor XIa determinations were made in 50 mM HEPES buffer at pH 7.4 containing 150 mM NaCl, 5 mM CaCl2, and 0.1% PEG 8000 (polyethylene glycol; JT Baker or Fisher Scientific). Determinations were made using purified human Factor XIa at a final concentration of 40 pM (Sekisui Diagnostics) and he synthetic substrate, Z-Gly-Pro-Arg-AFC, TFA salt (Sigma #C0980) at a concentration of 100 μM.
Times required to achieve equilibration between enzyme and inhibitor were determined in control experiments. Initial velocities of product formation in the absence (Vo) or presence of inhibitor (Vi) were measured. Assuming competitive inhibition, and that unity is negligible compared Km/[S], [I]/e, and [I]/e (where [S], [I], and e respectively represent the total concentrations, of substrate, inhibitor and enzyme), the equilibrium constant (Ki) for dissociation of the inhibitor from the enzyme can be obtained from the dependence of Vo/Vi on [I] shown in the following equation.

The mark [1] stands for this setting: purified human Factor XIa 40 pM, Z-Gly-Pro-Arg-AFC 100 μM, pH 7.4.

Where two headings read alike, the source gives them in different places.

Chain of human Factor XIa (P03951 388-625): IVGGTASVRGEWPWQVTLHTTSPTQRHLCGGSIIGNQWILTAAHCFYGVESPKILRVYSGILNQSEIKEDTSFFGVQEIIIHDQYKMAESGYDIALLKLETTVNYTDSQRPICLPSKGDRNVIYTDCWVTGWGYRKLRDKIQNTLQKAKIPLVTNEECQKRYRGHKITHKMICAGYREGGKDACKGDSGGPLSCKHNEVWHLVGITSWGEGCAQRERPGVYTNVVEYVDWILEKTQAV
Chain of human Factor XIa (P03951 19-387 partner): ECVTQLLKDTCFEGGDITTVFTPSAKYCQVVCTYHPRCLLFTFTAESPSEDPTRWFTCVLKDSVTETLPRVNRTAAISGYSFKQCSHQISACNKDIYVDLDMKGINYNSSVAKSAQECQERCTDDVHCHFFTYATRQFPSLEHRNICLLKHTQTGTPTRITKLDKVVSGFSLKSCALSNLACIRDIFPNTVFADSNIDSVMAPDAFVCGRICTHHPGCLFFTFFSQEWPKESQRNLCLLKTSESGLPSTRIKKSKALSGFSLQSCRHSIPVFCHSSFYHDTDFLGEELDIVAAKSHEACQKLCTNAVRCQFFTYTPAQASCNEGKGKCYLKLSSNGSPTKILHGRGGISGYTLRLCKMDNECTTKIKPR

`COC(=O)Nc1ccc(C(=O)NCC(=O)N2CCC3(C2)OC(=O)Nc2ccc(Cl)cc23)cc1` (racemic) [Example 23, methyl (4-((2-(6-chloro-2-oxo-1,2-dihydrospiro[benzo[d][1,3]oxazine-4,3′-pyrrolidin]-1′-yl)-2-oxoethyl)carbamoyl)phenyl)carbamate]: the Ki under setting [1] amounted to 248 nM.

`COC(=O)Nc1ccc(C(=O)NC2(C(=O)N3CCC4(C3)OC(=O)Nc3ccc(Cl)cc34)Cc3ccccc3C2)cc1` (racemic) [Example 26, methyl (4-((2-(6-chloro-2-oxo-1,2-dihydrospiro[benzo[d][1,3]oxazine-4,3′-pyrrolidin]-1′-ylcarbonyl)-2,3-dihydro-1H-inden-2-yl)carbamoyl)phenyl)carbamate]: the Ki under setting [1] is at least 5000 nM.

Consider `COC(=O)Nc1ccc(C(=O)NC(Cc2cc[nH]n2)C(=O)N2CCC3(C2)OC(=O)Nc2ccc(Cl)cc23)cc1` (racemic) [Example 28, methyl (4-((1-(6-chloro-2-oxo-1,2-dihydrospiro[benzo[d][1,3]oxazine-4,3′-pyrrolidin]-1′-yl)-1-oxo-3-(1H-pyrazol-3-yl)propan-2-yl)carbamoyl)phenyl)carbamate], for which the Ki under setting [1] stood at 63.7 nM.

With `COC(=O)Nc1ccc(C(=O)N[C@@H](Cc2ccccc2)C(=O)N2CCC3(C2)NC(=O)Nc2ccc(Cl)cc23)cc1` (single isomer, unassigned) [Example 19a], the Ki under setting [1] was 5000 nM.

For `COC(=O)Nc1ccc(C(=O)N[C@@H](Cc2ccccc2)C(=O)N2CCC3(C2)NC(=O)Nc2ccc(Cl)cc23)cc1` (single isomer, unassigned) [Example 19b], the Ki under setting [1] is 708 nM.

Take `COC(=O)Nc1ccc(C(=O)NC(C[C@@H]2CCCO2)C(=O)N2CCC[C@@]3(C2)OC(=O)Nc2ccc(Cl)c(F)c23)cc1` (single isomer, unassigned) [Example 116B]: under setting [1], the Ki amounted to 4.21 nM.

For `COC(=O)Nc1ccc(C(=O)NC(C[C@H]2CCCO2)C(=O)N2CCC[C@@]3(C2)OC(=O)Nc2ccc(Cl)c(F)c23)cc1` (single isomer, unassigned) [Example 117B], the Ki under setting [1] came out at 99.9 nM.

For the compound `COC(=O)Nc1ccc(-c2nc(C(Cc3ccccc3)C(=O)N3CCCC4(C3)OC(=O)Nc3ccc(Cl)c(F)c34)[nH]c2Cl)cc1` (single isomer, unassigned) [Example 126A, methyl (4-(5-chloro-2-(1-(6-chloro-5-fluoro-2-oxo-1,2-dihydrospiro[benzo[d][1,3]oxazine-4,3′-piperidin]-1′-yl)-1-oxo-3-phenylpropan-2-yl)-1H-imidazol-4-yl)phenyl)carbamate], the Ki under setting [1] was 1880 nM.

Consider `COC(=O)Nc1ccc(-c2nc(C(Cc3ccccc3)C(=O)N3CCCC4(C3)OC(=O)Nc3ccc(Cl)c(F)c34)[nH]c2Cl)cc1` (single isomer, unassigned) [Example 126B, methyl (4-(5-chloro-2-(1-(6-chloro-5-fluoro-2-oxo-1,2-dihydrospiro[benzo[d][1,3]oxazine-4,3′-piperidin]-1′-yl)-1-oxo-3-phenylpropan-2-yl)-1H-imidazol-4-yl)phenyl)carbamate], for which the Ki under setting [1] was determined as 154 nM.

In the case of `COC(=O)Nc1ccc(-c2nnc(C(Cc3ccccc3)C(=O)N3CC[C@@]4(C3)OC(=O)Nc3ccc(Cl)c(F)c34)o2)cc1` (single isomer, unassigned) [Example 129B], the inhibition constant (Ki) under setting [1] turned out to be 320 nM.

`COC(=O)Nc1ccc(-c2ncc(C(Cc3ccccc3)C(=O)N3CCC[C@@]4(C3)OC(=O)Nc3ccc(Cl)c(F)c34)[nH]2)cc1` (single isomer, unassigned) [Example 130A]: the Ki under setting [1] amounted to 360 nM.

With `COC(=O)Nc1ccc(-c2ncc(C(Cc3ccccc3)C(=O)N3CCC[C@@]4(C3)OC(=O)Nc3ccc(Cl)c(F)c34)[nH]2)cc1` (single isomer, unassigned) [Example 130B], under setting [1], the Ki is above 875 nM.

On to `O=C1Nc2ccc(Cl)cc2[C@@]2(CCCN(C(=O)C(Cc3ccc(F)cc3)c3nc4ccc(C(=O)O)cc4[nH]3)C2)O1` (single isomer, unassigned) [Example 132A (isomer A)], for which the Ki under setting [1] worked out at 61.7 nM.

On to `O=C1Nc2ccc(Cl)cc2[C@@]2(CCCN(C(=O)C(Cc3ccc(F)cc3)c3nc4ccc(C(=O)O)cc4[nH]3)C2)O1` (single isomer, unassigned) [Example 132A (isomer B)], for which, under setting [1], the inhibition constant Ki was 449 nM.

Turning to `O=C1Nc2ccc(Cl)cc2C2(CCN(C(=O)[C@H](Cc3ccccc3)NC(=O)c3ccc(C(=O)O)cc3)C2)O1` (single isomer, unassigned) [Example 140a], the Ki came out at 1600 nM.

In the case of `O=C1Nc2ccc(Cl)cc2C2(CCN(C(=O)[C@H](Cc3ccccc3)NC(=O)c3ccc(C(=O)O)cc3)C2)O1` (single isomer, unassigned) [Example 140b], the Ki amounted to 5000 nM.

Regarding `COC(=O)Nc1ccc(C(=O)N[C@@H](Cc2ccccc2)C(=O)N2CC[C@]3(C2)OC(=O)Nc2ncc(Cl)cc23)cc1` [Example 1a, methyl (4-(((S)-1-((S)-6-chloro-2-oxo-1,2-dihydrospiro[pyrido[2,3-d][1,3]oxazine-4,3′-pyrrolidin]-1′-yl)-1-oxo-3-phenylpropan-2-yl)carbamoyl)phenyl)carbamate], the Ki under setting [1] is 3470 nM.

Regarding `COC(=O)Nc1ccc(C(=O)N[C@@H](Cc2ccccc2)C(=O)N2CC[C@@]3(C2)OC(=O)Nc2ncc(Cl)cc23)cc1` [Example 1b, methyl (4-(((S)-1-((R)-6-chloro-2-oxo-1,2-dihydrospiro[pyrido[2,3-d][1,3]oxazine-4,3′-pyrrolidin]-1′-yl)-1-oxo-3-phenylpropan-2-yl)carbamoyl)phenyl)carbamate], under setting [1], the Ki is 246 nM.

As to `COC(=O)Nc1ccc(C(=O)N[C@@H](Cc2ccccc2)C(=O)N2CC[C@@]3(C2)OC(=O)Nc2ccccc23)cc1` [Example 2, methyl (4-(((S)-1-oxo-1-((R)-2-oxo-1,2-dihydrospiro[benzo[d][1,3]oxazine-4,3′-pyrrolidin]-1′-yl)-3-phenylpropan-2-yl)carbamoyl)phenyl)carbamate], the Ki under setting [1] was found to be 220 nM.

For the compound `COC(=O)Nc1ccc(C(=O)N[C@@H](Cc2ccccc2)C(=O)N2CCC[C@]3(C2)OC(=O)Nc2ccc(Cl)cc23)cc1` [Example 3a, methyl (4-(((S)-1-((S)-6-chloro-2-oxo-1,2-dihydrospiro[benzo[d][1,3]oxazine-4,3′-piperidin]-1′-yl)-1-oxo-3-phenylpropan-2-yl)carbamoyl)phenyl)carbamate], the Ki under setting [1] is 815 nM.

As to `COC(=O)Nc1ccc(C(=O)N[C@@H](Cc2ccccc2)C(=O)N2CCCCC3(C2)OC(=O)Nc2ccc(Cl)cc23)cc1` (stereo partly drawn) [Example 4, methyl (4-(((2S)-1-(6′-chloro-2′-oxo-1′,2′-dihydrospiro[azepane-3,4′-benzo[d][1,3]oxazin]-1-yl)-1-oxo-3-phenylpropan-2-yl)carbamoyl)phenyl)carbamate], the Ki under setting [1] is 4600 nM.

Regarding `COC(=O)Nc1ccc(C(=O)N[C@@H](Cc2ccccc2)C(=O)N2CC3(C2)OC(=O)Nc2ccc(Cl)cc23)cc1` [Example 5, (S)-methyl (4-((1-(6′-chloro-2′-oxo-1′,2′-dihydrospiro[azetidine-3,4′-benzo[d][1,3]oxazin]-1-yl)-1-oxo-3-phenylpropan-2-yl)carbamoyl)phenyl)carbamate], the Ki under setting [1] is above 5000 nM.

For `COC(=O)Nc1ccc(C(=O)N[C@@H](Cc2ccccc2)C(=O)N2CCC[C@]3(C2)OC(=O)Nc2ccc(F)cc23)cc1` [Example 8b, methyl (4-(((S)-1-((S)-6-fluoro-2-oxo-1,2-dihydrospiro[benzo[d][1,3]oxazine-4,3′-piperidin]-1′-yl)-1-oxo-3-phenylpropan-2-yl)carbamoyl)phenyl)carbamate], the Ki under setting [1] is 5000 nM.

Turning to `COC(=O)Nc1ccc(C(=O)N[C@@H](Cc2ccccc2)C(=O)N2CCC[C@@]3(C2)OC(=O)Nc2ccc(C(F)(F)F)cc23)cc1` [Example 10, methyl (4-(((S)-1-oxo-1-((R)-2-oxo-6-(trifluoromethyl)-1,2-dihydrospiro[benzo[d][1,3]oxazine-4,3′-piperidin]-1′-yl)-3-phenylpropan-2-yl)carbamoyl)phenyl)carbamate], under setting [1], the Ki was determined as 8440 nM.

As for `COC(=O)Nc1ccc(C(=O)N[C@@H](Cc2ccccc2)C(=O)N2CCC[C@@]3(C2)OC(=O)Nc2cc(F)c(Cl)c(F)c23)cc1` [Example 11, methyl (4-(((S)-1-((R)-6-chloro-5,7-difluoro-2-oxo-1,2-dihydrospiro[benzo[d][1,3]oxazine-4,3′-piperidin]-1′-yl)-1-oxo-3-phenylpropan-2-yl)carbamoyl)phenyl)carbamate], the Ki under setting [1] was determined as 51 nM.

Take `COC(=O)Nc1ccc(C(=O)N[C@@H](Cc2ccccc2)C(=O)N2CCC[C@@]3(C2)OC(=O)Nc2c(F)cc(Cl)cc23)cc1` [Example 12, methyl (4-(((S)-1-((R)-6-chloro-8-fluoro-2-oxo-1,2-dihydrospiro[benzo[d][1,3]oxazine-4,3′-piperidin]-1′-yl)-1-oxo-3-phenylpropan-2-yl)carbamoyl)phenyl)carbamate]: the Ki under setting [1] stood at 109 nM.

For the origin of these results see patent US10093683B2, “Factor XIa inhibitors” (Merck Sharp & Dohme Corp., priority 2014, dated 2018).
